This is an account of results in ChEMBL document CHEMBL1201862, “PubChem BioAssay data set” (2004).

The source made the active and inactive calls.

A short description of series [1]: Luminescence Cell-Based Dose Confirmation HTS to Identify Inhibitors of Platelet Dense Granule Release. [Related pubchem assays: 1663 (Primary HTS), 1678 (Summary of Project)]. It counts as functional.
Series [2] concerns the target Luciferin 4-monooxygenase (Photinus pyralis, UniProt P08659). In words: firefly luciferase enzyme inhibitors, dose response, biochemical, luminescence (AID 1891).
A further series has as its target Cytochrome P450 3A4 (Homo sapiens, UniProt P08684).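 Further: CYP3A4 tested as one member of a cytochrome P450 panel screen.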
The target in a further series is Cytochrome P450 2C19 (Homo sapiens, UniProt P33261). In words: Cytochrome panel assay with activity outcomes. Panel member name: p450-cyp2c19 Compounds with AC50 equal or less than 10 uM are considered active. It counts as functional.
Series [3] in a line: inhibitors of HIV Env-driven cell fusion, dose response, cherry-pick (AID 652057). It counts as functional, cell-based.
A short description of series [4]: inhibitors of clade B AD8 Env fusion, dose response, cell-based, cherry-pick (AID 652062).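 Further: luciferase signal from cell-cell fusion driven by HIV-1 clade B AD8 Env; potency is for inhibitors of fusion seen as a drop in luminescence.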 It counts as functional.
Series [5] in a line: growth suppression of beta-catenin-knockout colon cells, dose response, cell-based, HCT116, human colon tumor (AID 1045).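 Further: HCT116 colon tumor cells with beta catenin knocked out; cells exposed to compound for 60 hours.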 It counts as functional.
Series [6] in a line: growth suppression of PTEN-null colon cells, dose response, cell-based, HCT116 PTEN knockout (AID 1047).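 Further: HCT116 colon tumor cells with PTEN knocked out; cells exposed to compound for 60 hours before readout; potency for loss of cell viability measured by luminescence.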 It counts as functional.
A short description of series [7]: Luminescence Cell-Based Dose Retest to Confirm Inhibitors of Cancer Stem Cells. [Related pubchem assays (depositor defined):AID2717, AID2721]. It counts as functional. The conditions noted are these: Homo sapiens.
Series [8] addresses FAD-linked sulfhydryl oxidase ALR (Homo sapiens, UniProt P55789). In words: inhibitors of human ALR sulfhydryl oxidase, dose response, biochemical, H2O2 detection, luminescence, cherry-pick (AID 493248).
The target of series [9] is T1, Heat shock factor protein 1 (Mus musculus, UniProt P38532).
T1 sequence (P38532 whole entry): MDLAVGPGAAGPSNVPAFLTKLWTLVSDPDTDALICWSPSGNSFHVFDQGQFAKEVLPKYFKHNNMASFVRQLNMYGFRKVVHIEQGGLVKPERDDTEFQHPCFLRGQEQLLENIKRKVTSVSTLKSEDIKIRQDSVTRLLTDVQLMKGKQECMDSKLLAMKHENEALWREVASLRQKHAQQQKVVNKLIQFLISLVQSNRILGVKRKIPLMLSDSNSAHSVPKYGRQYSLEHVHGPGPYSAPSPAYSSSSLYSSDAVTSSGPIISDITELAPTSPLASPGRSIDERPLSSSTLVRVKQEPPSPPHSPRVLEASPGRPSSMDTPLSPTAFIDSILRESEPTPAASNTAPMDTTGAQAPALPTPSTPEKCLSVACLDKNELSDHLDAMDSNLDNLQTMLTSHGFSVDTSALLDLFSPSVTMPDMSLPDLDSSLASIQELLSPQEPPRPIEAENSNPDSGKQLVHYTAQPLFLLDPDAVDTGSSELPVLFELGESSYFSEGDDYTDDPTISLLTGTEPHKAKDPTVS
The series can be described thus: HSF1 potentiators in luciferase reporter cells, confirmation, cell-based, NIH3T3, luminescence, dose retest (AID 435004).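 Further: stress induced by proteasome inhibitor MG132 added 30 min after compound; luciferase reporter driven by HSF1 response element in NIH3T3 cells; actives raise luminescence as potentiators of the MG132 stress response.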 It counts as functional. On the technique in general: Reporter assays use an easily measured gene product as a stand-in for the process of interest.

The nature of series [10]: HEp-2 cell cytotoxicity, dose response, cytotoxicity control for RSV inhibitor project, HTS (AID 2410). It counts as functional. The conditions noted are these: human respiratory syncytial virus.
The nature of a further series: cells. It counts as functional.
The nature of series [11]: inhibitors of firefly luciferase expression or activity, dose response, H4 neuroglioma cells, luminescence (AID 1990). It counts as functional, cell-based.
Series [12] can be described thus: inhibitors of SNCA 5'UTR-driven reporter translation, confirmation, H4 neuroglioma cells, luminescence (AID 1988). It counts as functional, cell-based.
A further series deals with Streptococcus. The series can be described thus: Group A Streptococcus viability loss, dose response, counter-screen for streptokinase expression inhibitor project, luminescence, BacTiterGlo (AID 1915).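 Further: potency for reduction of bacterial viability or growth.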 It counts as functional, organism-based. For orientation: Counterscreens check selectivity or assay interference.
For series [13], the system named is Streptococcus sp. 'group A'. In words: growth inhibition of control SK(-) GAS strain, dose response, counter-screen for streptokinase expression inhibitor project, luminescence, kanamycin, BacTiterGlo, confirmation (AID 1900). It counts as functional, organism-based.
Series [14] in a line: Luminescence Cell-Based Dose Response HTS to Identify Inhibitors of 5'UTR Stem-Loop Driven Prion Protein mRNA Translation in H4 Neuroglioblastoma Cells. [Related pubchem assays: 1827 (Project Summary), 1813 (Primary HTS)]. It counts as functional.
In series [15] the target is T2, Corticotropin-releasing factor receptor 2/Corticotropin-releasing factor-binding protein (Homo sapiens, UniProt P24387+Q13324).
T2 sequence (Q13324 whole entry): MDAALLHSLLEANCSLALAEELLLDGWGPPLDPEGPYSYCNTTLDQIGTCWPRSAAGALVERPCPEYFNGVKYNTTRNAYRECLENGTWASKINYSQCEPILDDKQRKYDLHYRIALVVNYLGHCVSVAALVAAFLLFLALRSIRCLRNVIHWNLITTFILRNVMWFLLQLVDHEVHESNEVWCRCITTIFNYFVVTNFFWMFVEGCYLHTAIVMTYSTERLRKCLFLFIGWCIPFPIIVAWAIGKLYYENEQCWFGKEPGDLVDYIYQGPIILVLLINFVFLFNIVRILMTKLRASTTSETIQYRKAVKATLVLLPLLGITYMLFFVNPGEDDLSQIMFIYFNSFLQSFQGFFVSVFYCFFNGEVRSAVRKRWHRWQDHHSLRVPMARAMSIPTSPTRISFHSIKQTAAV
T2 sequence (P24387 whole entry): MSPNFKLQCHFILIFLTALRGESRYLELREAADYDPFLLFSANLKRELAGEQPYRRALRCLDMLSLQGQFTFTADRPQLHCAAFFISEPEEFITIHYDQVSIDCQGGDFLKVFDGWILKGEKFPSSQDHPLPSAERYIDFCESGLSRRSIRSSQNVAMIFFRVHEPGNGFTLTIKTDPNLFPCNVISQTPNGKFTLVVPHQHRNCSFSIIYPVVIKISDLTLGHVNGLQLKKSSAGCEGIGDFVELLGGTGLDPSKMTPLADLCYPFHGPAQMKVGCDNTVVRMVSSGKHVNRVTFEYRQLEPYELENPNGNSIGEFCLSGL
In words: activators of CRF receptor 2 with binding protein – uHTS hits, confirmation (AID 602473). It counts as functional. The conditions noted are these: read-out: EC50_Mean.

For orientation: AC50 means the concentration at which the activity in the assay is half-maximal. One may read the CC50 as the concentration that lowers cell viability or growth by half. What is called IC50 is the concentration at which inhibition is half-maximal.

Chain of Luciferin 4-monooxygenase (P08659 whole entry): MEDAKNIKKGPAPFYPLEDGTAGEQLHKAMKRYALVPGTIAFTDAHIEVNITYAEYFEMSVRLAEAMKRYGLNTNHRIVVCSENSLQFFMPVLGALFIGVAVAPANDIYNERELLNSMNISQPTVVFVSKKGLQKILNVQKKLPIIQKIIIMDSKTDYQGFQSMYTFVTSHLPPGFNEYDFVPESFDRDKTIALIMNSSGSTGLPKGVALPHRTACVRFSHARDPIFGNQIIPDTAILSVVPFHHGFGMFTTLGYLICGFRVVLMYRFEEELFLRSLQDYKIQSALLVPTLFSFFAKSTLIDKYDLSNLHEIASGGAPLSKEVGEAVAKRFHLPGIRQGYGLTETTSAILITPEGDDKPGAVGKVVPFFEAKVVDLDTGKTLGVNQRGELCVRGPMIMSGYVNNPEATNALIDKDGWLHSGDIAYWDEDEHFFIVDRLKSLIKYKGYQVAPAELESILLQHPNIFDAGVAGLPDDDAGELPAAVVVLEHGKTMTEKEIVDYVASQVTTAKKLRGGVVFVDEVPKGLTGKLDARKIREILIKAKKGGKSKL
Chain of Cytochrome P450 3A4 (P08684 whole entry): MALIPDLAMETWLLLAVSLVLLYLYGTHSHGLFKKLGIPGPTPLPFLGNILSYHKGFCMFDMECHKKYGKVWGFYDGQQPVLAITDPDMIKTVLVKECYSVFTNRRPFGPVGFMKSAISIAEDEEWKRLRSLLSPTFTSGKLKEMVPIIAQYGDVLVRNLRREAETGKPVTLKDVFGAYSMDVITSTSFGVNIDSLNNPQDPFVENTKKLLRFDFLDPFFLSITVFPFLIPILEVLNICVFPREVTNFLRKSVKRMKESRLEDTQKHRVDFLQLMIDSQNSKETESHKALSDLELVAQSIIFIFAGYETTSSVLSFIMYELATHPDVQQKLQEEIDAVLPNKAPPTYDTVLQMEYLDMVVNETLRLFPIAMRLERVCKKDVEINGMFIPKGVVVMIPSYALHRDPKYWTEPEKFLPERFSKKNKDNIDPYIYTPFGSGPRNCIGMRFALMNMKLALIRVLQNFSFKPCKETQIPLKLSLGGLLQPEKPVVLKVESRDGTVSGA
Chain of FAD-linked sulfhydryl oxidase ALR (P55789 whole entry): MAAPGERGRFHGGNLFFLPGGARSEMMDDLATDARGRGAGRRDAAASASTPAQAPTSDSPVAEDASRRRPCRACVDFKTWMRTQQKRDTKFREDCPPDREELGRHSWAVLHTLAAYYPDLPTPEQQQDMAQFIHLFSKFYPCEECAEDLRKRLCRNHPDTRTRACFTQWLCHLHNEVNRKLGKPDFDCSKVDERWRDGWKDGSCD
Chain of Cytochrome P450 2C19 (P33261 whole entry, the tested form may be a part): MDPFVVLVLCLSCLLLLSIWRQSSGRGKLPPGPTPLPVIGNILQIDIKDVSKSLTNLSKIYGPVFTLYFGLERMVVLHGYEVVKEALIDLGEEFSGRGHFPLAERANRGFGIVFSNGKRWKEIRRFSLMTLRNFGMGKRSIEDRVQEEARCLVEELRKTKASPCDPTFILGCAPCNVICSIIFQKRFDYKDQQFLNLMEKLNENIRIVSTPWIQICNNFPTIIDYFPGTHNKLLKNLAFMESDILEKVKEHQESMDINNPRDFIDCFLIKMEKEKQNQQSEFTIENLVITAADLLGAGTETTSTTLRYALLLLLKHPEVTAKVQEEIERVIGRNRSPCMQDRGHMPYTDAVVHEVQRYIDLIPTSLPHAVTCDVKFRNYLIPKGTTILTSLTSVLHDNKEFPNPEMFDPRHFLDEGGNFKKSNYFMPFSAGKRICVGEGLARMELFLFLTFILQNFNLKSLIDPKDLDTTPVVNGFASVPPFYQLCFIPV

In the case of `CC(C)Nc1nc(NC(C)(C)C)nc(Oc2ccc(=O)n(-c3ccccc3)n2)n1`, the EC50 in [1] and in [2] was > 112 µM (not active) in each case. Also, the figures for the AC50 on Cytochrome P450 3A4 and at Cytochrome P450 2C19 were 12.6 µM (inconclusive) and “inconclusive”, respectively.
Regarding `C[C@@H]1CN([C@H](C)CO)C(=O)c2cccc(NS(=O)(=O)c3ccccc3)c2O[C@@H]1CN(C)Cc1ccc(Cl)c(Cl)c1`, the AC50 in series [3] is < 0.26 µM (active); in series [4], 1.67 µM (active).
Consider `O=C(NNC1=Nc2cccc3cccc1c23)c1ccccc1Br`, for which the EC50 in series [5] was 20.8 µM (active); in series [6], 21.9 µM (active).
As for `CC(C)Oc1cccc(C(=O)NC(=S)Nc2ccccc2N2CCOCC2)c1`, the AC50 in series [7] is 4.53 µM (active).
As for `O=C(Nc1ccc(Cl)c(Cl)c1)Nc1ccccc1C(=O)O`, the results for the EC50 in series [1] and in series [2] were 8.59 µM (active) and 0.12 µM (active), respectively. For the same compound, the AC50 in series [8] is 0.182 µM (active).
`CCn1c2ccccc2c2cc(NC(=O)CSc3nnc(-c4cccc(OC)c4)n3N)ccc21`: the EC50 in series [5] is 31.5 µM (active); in [9] it was 33.9 µM (active); in [6] it was 32.1 µM (active).
For `C=C(C)COc1ccc(-c2nc(N)ncc2-c2ccc(Br)cc2)c(O)c1`, the CC50 in series [10] is 15.7 µM (active). In addition, the AC50 in series [7] was 5.37 µM (active).
With `O=C(COC(=O)CCc1c[nH]c2ccccc12)NCc1ccc2c(c1)OCO2`, the IC50 in the series “cells” was 11.3 µM (active).
As for `Cc1ccc2[nH]c3nc(N/N=C/c4cccc(O)c4)nnc3c2c1`, the AC50 in [7] was < 0.16 µM (active).
Consider `CCCN1[C@H](C(=O)N[C@@H](C)c2ccccc2)[C@@H](CO)[C@@H]2Cn3c(ccc(-c4cccc(F)c4)c3=O)[C@@H]21`, for which the AC50 in series [3] is 41.5 µM (active).
Take `c1ccc(CN2CCC(Nc3nc(-c4cccs4)nc4ccccc34)CC2)cc1`: the AC50 in [7] is 4.2 µM (active).
As for `C=C(C)CN=C(S)NNC(=O)CCn1c2ccc(Cl)cc2c2cc(Cl)ccc21`, the EC50 in [11] is > 120 µM (not active); in series [12], > 120 µM (not active); with Streptococcus, 8.01 µM (active); in [13] it was 2.84 µM (active); in series [14], > 120 µM (not active). Also, the AC50 in series [7] was 1.44 µM (active).
Consider `Cc1ccc(S(=O)(=O)N(C)C[C@@H]2Oc3ccc(NC(=O)Nc4ccc5c(c4)OCO5)cc3C(=O)N([C@H](C)CO)C[C@@H]2C)cc1`, for which the AC50 was 2.48 µM (active) in series [3] and 5.55 µM (active) in [4].
Take `COc1ccc(CCNC(=O)CSc2nc(N)c3c(C)c(C)oc3n2)cc1OC`: the EC50 in [1] and in series [2] was > 112 µM (not active) in each case.
For `Cc1ccc(C(C[N+](=O)[O-])n2nc(C)cc2C)cc1` (stereo not given), in [7], the AC50 was 13 µM (active).
Regarding `C[C@H](CO)N1C[C@H](C)[C@H](CN(C)S(=O)(=O)c2ccccc2)Oc2ccc(NS(=O)(=O)c3ccccc3)cc2CC1=O`, the AC50 in [3] is 8.48 µM (active); in [4], 13.6 µM (active).
For the compound `COc1cc(NC(=O)C/C(C)=N/NC(=O)c2cccs2)c(OC)cc1Cl`, in the series “cells”, the IC50 was 2.79 µM (active).
For `Clc1nccnc1N/N=C/c1ccc(Br)cc1`, the EC50 in series [1] is 4.81 µM (active); in [2], 2.82 µM (active).
On to `COC(=O)c1nn(-c2ccccc2)c(Sc2ccc(OC)cc2)c1/C=N/O`, for which the EC50 in series [1] is 28.5 µM (active); in series [2], > 112 µM (not active).
On to `CCOC(=O)c1cnc2c([N+](=O)[O-])cnn2c1C`, for which the EC50 in [1] and in [2] was > 112 µM (not active) in each case.
Turning to `CCCCNCc1cc(Br)c(OCc2cccs2)c(OC)c1`, the EC50 is 16.6 µM (active) in series [5] and 17 µM (active) in series [6].
Turning to `COc1ccc(S(=O)(=O)N(C)C[C@@H]2Oc3ccc(N(C)C)cc3C(=O)N([C@H](C)CO)C[C@@H]2C)cc1`, the AC50 in [3] is 12 µM (active); in series [4] it was 26.4 µM (active).
Turning to `COc1cccc(C(=O)Nc2ccc(Cl)c(C(F)(F)F)c2)c1`, the EC50 in [5] is 60.1 µM (active); in [6] it was 43.3 µM (active).
Take `Cn1nnnc1SCC(=O)NC1CCCc2ccccc21` (stereo not given): the EC50 in [1] and in [2] was > 112 µM (not active) in each case.
As for `O=C1c2ccccc2C(Nc2ccc(Cl)cn2)N1c1ccccn1` (stereo not given), the EC50 in series [1] and in series [2] was > 112 µM (not active) throughout.
With `CCCNC(=O)COC(=O)/C=C/c1ccco1`, the EC50 in [1] and in series [2] was > 112 µM (not active) in each case.
On to `Cc1ccc(CNC(=O)CCS(=O)(=O)c2ccc(Br)s2)o1`, for which the EC50 in [1] and in [2] was > 112 µM (not active) in each case.
Regarding `O=C(NCc1ccc2c(c1)OCO2)C1CCN(S(=O)(=O)c2ccc(F)cc2)CC1`, the EC50 in series [1] and in series [2] was > 112 µM (not active) in each case.
Take `COc1cccc(/C(O)=C/c2nc3ccc(C(=O)NCCc4ccc(Cl)cc4)cc3nc2O)c1`: the values for the EC50 in [5], in series [15] and in series [6] were 4.16 µM (active), 5.02 µM (active) and 4.26 µM (active), respectively.
